Values joined by “and” are separate entries in the source; they are usually repeats but may differ in a detail not shown here. Equal entries are not always repeated. Where two headings read alike, the source gives them in different places.
Assays:
Ba/F3 cells = assay: Growth inhibition assay in Ba/F3 cells (CellTiter-Glo, 72 h); format: cell-based
LC-2/ad cells = assay: Growth inhibition (alamarBlue, 96 h); format: cell-based, human; conditions: for raw viability signal (Source Data Fig. 3b-c): LC-2/Ad, replicate sets
LUAD-0057BS1 cells = assay: Growth inhibition (alamarBlue, 96 h); format: cell-based, human; conditions: for raw viability signal (Source Data Fig. 3b-c): LUAD-0057BS1, replicate sets
LUAD-0087AS2 cells = assay: Growth inhibition (alamarBlue, 96 h); format: cell-based, human; conditions: for raw viability signal (Source Data Fig. 3b-c): LUAD-0087AS2, replicate sets
ECLC5B cells = assay: Growth inhibition (alamarBlue, 96 h); format: cell-based, human; conditions: ECLC5B; for raw viability signal (Source Data Fig. 3b-c): replicates
TT cells = assay: Growth inhibition (alamarBlue, 96 h); format: cell-based, human; conditions: for raw viability signal (Source Data Fig. 3b-c): replicate sets
[1] = test system: ECLC5 luciferase cells implanted intracranially; assay: Intracranial efficacy study; format: in vivo, NSG mice; conditions: Fig. 8e (middle panel) ECLC5 luminescence; 50 mg/kg BID
[2] = Homo sapiens, read-out: IC50 for Inhibition of Growth (95% CI), alamarBlue, 96 h

**Q.** Which results are given for `COc1cc2c(Nc3ccc(Br)cc3F)ncnc2cc1OCC1CCN(C)CC1` [Vandetanib]?
**A.** GI50 (Ba/F3 cells; Ba/F3 (parental), replicate Sets 1-3, read-out: GI50): 7330 nM and 9120 nM; GI50 (Ba/F3 cells; Mus musculus, BaF3, 72 h, Ba/F3, CellTiter-Glo, 72 h, read-out: GI50 value (Mean ± SD)): 7490 nM; GI50 (Ba/F3 cells; Mus musculus, BaF3, Ba/F3 (parental), replicate Sets 1-3, read-out: GI50): 6020 nM; IC50 (LC-2/ad cells; Homo sapiens, read-out: IC50 for Inhibition of Growth (95% CI), LC-2/ad, alamarBlue, 96 h): 61 nM; raw viability signal (Source Data Fig. 3b-c) (LC-2/ad cells; 0.01 nM): 12607.4 and 20233.4; raw viability signal (Source Data Fig. 3b-c) (LC-2/ad cells; 0.1 nM): 13108.5 and 20488.5; raw viability signal (Source Data Fig. 3b-c) (LC-2/ad cells; 1 nM): 11956.2 and 19814.6; raw viability signal (Source Data Fig. 3b-c) (LC-2/ad cells; 10 nM): 11578.8 and 17158.6; raw viability signal (Source Data Fig. 3b-c) (LC-2/ad cells; 100 nM): 4528.4 and 9691.17; raw viability signal (Source Data Fig. 3b-c) (LC-2/ad cells; 1000 nM): 1439.52 and 1771.38; raw viability signal (Source Data Fig. 3b-c) (LC-2/ad cells; 10000 nM): 850.396; IC50 (LUAD-0057BS1 cells; Homo sapiens, read-out: IC50 for Inhibition of Growth (95% CI), LUAD-0057BS1, alamarBlue, 96 h): 363 nM; raw viability signal (Source Data Fig. 3b-c) (LUAD-0057BS1 cells; 0.01 nM): 17034.2 and 23597.8; raw viability signal (Source Data Fig. 3b-c) (LUAD-0057BS1 cells; 0.1 nM): 16283.3 and 21948.2; raw viability signal (Source Data Fig. 3b-c) (LUAD-0057BS1 cells; 1 nM): 16965.6 and 22300.3; raw viability signal (Source Data Fig. 3b-c) (LUAD-0057BS1 cells; 10 nM): 14389.1 and 16776.9 and 22078.9; raw viability signal (Source Data Fig. 3b-c) (LUAD-0057BS1 cells; 100 nM): 13528.1 and 13127 and 19841.4; raw viability signal (Source Data Fig. 3b-c) (LUAD-0057BS1 cells; 1000 nM): 5066.49 and 6132.7 and 5277.44; raw viability signal (Source Data Fig. 3b-c) (LUAD-0057BS1 cells; 10000 nM): 837.183 and 963.777 and 796.086; IC50 (LUAD-0087AS2 cells; Homo sapiens, read-out: IC50 for Inhibition of Growth (95% CI), LUAD-0087AS2, alamarBlue, 96 h): 264 nM; raw viability signal (Source Data Fig. 3b-c) (LUAD-0087AS2 cells; 0.01 nM): 12332.1 and 13934.5 and 13930.1; raw viability signal (Source Data Fig. 3b-c) (LUAD-0087AS2 cells; 0.1 nM): 10316.9 and 14234.5 and 13979.9; raw viability signal (Source Data Fig. 3b-c) (LUAD-0087AS2 cells; 1 nM): 14707.2 and 14551.9 and 13357; raw viability signal (Source Data Fig. 3b-c) (LUAD-0087AS2 cells; 10 nM): 9639.26 and 14042.7; raw viability signal (Source Data Fig. 3b-c) (LUAD-0087AS2 cells; 100 nM): 8268.62 and 14329.9 and 11925.1; raw viability signal (Source Data Fig. 3b-c) (LUAD-0087AS2 cells; 1000 nM): 3107.74 and 4188.25 and 2159.6 and 1975.84; raw viability signal (Source Data Fig. 3b-c) (LUAD-0087AS2 cells; 10000 nM): 1739.1 and 865.962 and 878.418 and 892.669; raw viability signal (Source Data Fig. 3b-c) (ECLC5B cells; 0.01 nM): 9731.41 and 6613.39 and 26019.7; raw viability signal (Source Data Fig. 3b-c) (ECLC5B cells; 0.1 nM): 10719.9 and 7303.21 and 26332.1; raw viability signal (Source Data Fig. 3b-c) (ECLC5B cells; 1 nM): 7568.32 and 25576; raw viability signal (Source Data Fig. 3b-c) (ECLC5B cells; 10 nM): 10376.5 and 7240.47 and 24146.6; raw viability signal (Source Data Fig. 3b-c) (ECLC5B cells; 100 nM): 8370.2 and 5534.52 and 20059.6; raw viability signal (Source Data Fig. 3b-c) (ECLC5B cells; 1000 nM): 1326.74 and 1175.68 and 3727.83; raw viability signal (Source Data Fig. 3b-c) (ECLC5B cells; 10000 nM): 1185.45 and 1144.21 and 2595.71; IC50 (ECLC5B cells; [2]): 248 nM; raw viability signal (Source Data Fig. 3b-c) (TT cells; 0.01 nM): 24130.4 and 28596.3 and 33849.7 and 15452.6; raw viability signal (Source Data Fig. 3b-c) (TT cells; 0.1 nM): 23355.5 and 28594.1 and 36565.2; raw viability signal (Source Data Fig. 3b-c) (TT cells; 1 nM): 22374.7 and 27607.6 and 35010.1 and 13701.7; raw viability signal (Source Data Fig. 3b-c) (TT cells; 10 nM): 16858.1 and 26132.6 and 31759.9 and 13240.5 and 11997.4; raw viability signal (Source Data Fig. 3b-c) (TT cells; 100 nM): 9840.2 and 25256.2 and 32238.5 and 11048.8 and 6020.05; raw viability signal (Source Data Fig. 3b-c) (TT cells; 1000 nM): 9436.58 and 12629.1 and 19662.7 and 4747.88 and 2242.82; raw viability signal (Source Data Fig. 3b-c) (TT cells; 10000 nM): 6954.01 and 10117.3 and 4217.75 and 1470.42; IC50 (TT cells; [2]): 90 nM; Area Under Curve Mean [1]: -890991750

Source: article PMC10518257 (Nature Cancer, 2023)
